From US8481586B2, “Pyrrolo[2,3-a] carbazoles and use thereof as PIM kinase inhibitors” (Centre National de la Recherche Scientifique, priority 2008, dated 2013)
Where two headings read alike, the source gives them in different places.

Columns and labels:
Type in all cases: biochemical
[1] = target: PIM-1 (Homo sapiens (Human), UniProt P11309); assay: inhibition test on kinase PIM-1 (residual activity, IC50)
Description: (§1) MKK1, ERK 1, ERK 2, JNK1, JNK2, JNK3, p38a MAPK, p38b MAPK, p38g MAPK, p38s MAPK, ERK8, RSK1, RSK2, PDK1, PKBa, PKBb, SGK1, S6K1, PKA, ROCK2, PRK2, PKCa, PKC zeta, PKD1, MSK1, MNK1, MNK2, MAPKAP-K2, MAPKAP-K3, PRAK, CAMKKa, CAMKKb, CAMK1, SmMLCK, PHK, CHK1, CHK2, GSK3b, CDK2/cyclin A, PLK1, PLK1 (Okadaic acid), Aurora B, Aurora C, AMPK, MARK3, BRSK2, MELK, CK1, CK2, NEK2a, NEK6, NEK7, IKKb, PIM-1, PIM-2, PIM-3, SRPK1, MST2, EF2K, HIPK2, HIPK3, PAK-4, PAK5, PAK6, Src, Lck, CSK.
(§2) The results in terms of residual activity of the kinases after being placed in contact with the compounds of Examples 2, 3 and 5, at a concentration of 10 μM (10 μmol/L), are shown in Table 1 below.
(§3) The higher the residual activity of the kinase tested, the lower the inhibitory activity of the test compounds on the tested kinase.
(§4) The compounds according to the invention were then tested on the kinases PIM-1, PIM-2 and PIM-3.
(§5) The results in terms of percentage of residual activity after placing the compounds according to the invention in contact with each of the kinases PIM-1, PIM-2 and PIM-3 are given in Table 2 below.
(§6) The higher the residual activity, the lower the inhibitory activity of the test compounds.
(§7) The mean inhibitory concentrations (IC50) of certain preferred compounds of the invention were determined in the following manner: the IC50 values were measured after performing the inhibition tests on the kinases PIM-1, PIM-2 and PIM-3 at ten different concentrations for each test compound, and the IC50 value was determined from the dose-inhibition curves obtained.

[2] = target: ROCK2 (Homo sapiens (Human), UniProt O75116); assay: kinase panel residual activity test; conditions: compound at 10 μM
Description: as §1

[3] = system: CK2; assay: kinase panel residual activity test; conditions: compound at 10 μM
Description: as §1

[4] = target: Lck (Homo sapiens (Human), UniProt P06239); assay: kinase panel residual activity test; conditions: compound at 10 μM
Description: as §1

[5] = target: CAMK1 (Homo sapiens (Human), UniProt Q14012); assay: kinase panel residual activity test; conditions: compound at 10 μM
Sequence of CAMK1 (Q14012 whole entry, species assumed): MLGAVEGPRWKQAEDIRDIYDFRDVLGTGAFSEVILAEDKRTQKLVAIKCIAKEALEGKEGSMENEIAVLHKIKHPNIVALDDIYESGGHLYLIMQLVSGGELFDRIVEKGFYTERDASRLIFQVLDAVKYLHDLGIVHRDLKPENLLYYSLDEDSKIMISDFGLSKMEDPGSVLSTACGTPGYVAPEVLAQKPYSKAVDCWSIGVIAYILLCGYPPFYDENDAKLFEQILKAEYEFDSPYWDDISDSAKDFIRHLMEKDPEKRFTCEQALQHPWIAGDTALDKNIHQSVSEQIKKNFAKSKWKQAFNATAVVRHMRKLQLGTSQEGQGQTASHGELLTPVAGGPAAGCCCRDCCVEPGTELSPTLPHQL
Description: as §1

[6] = target: MKK1 (Homo sapiens (Human), UniProt Q02750); assay: kinase panel residual activity test; conditions: compound at 10 μM
Description: as §1

[7] = target: PKBa (Homo sapiens (Human), UniProt P31749); assay: kinase panel residual activity test; conditions: compound at 10 μM
Sequence of PKBa (P31749 whole entry): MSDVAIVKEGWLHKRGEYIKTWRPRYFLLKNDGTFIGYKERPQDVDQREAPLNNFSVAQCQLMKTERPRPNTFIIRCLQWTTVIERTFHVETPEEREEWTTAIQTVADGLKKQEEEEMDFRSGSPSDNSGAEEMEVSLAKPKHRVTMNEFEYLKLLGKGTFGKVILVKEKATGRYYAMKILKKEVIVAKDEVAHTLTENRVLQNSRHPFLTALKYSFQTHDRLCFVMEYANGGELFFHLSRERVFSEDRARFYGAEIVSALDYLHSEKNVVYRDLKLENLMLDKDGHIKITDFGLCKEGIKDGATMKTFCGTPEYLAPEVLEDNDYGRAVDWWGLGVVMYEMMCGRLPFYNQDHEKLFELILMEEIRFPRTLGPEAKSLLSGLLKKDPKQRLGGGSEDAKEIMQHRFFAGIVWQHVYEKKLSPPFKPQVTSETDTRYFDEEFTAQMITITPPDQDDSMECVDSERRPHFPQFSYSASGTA
Description: as §1

[8] = target: p38a MAPK (Homo sapiens (Human), UniProt Q16539); assay: kinase panel residual activity test; conditions: compound at 10 μM
Sequence of p38a MAPK (Q16539 whole entry): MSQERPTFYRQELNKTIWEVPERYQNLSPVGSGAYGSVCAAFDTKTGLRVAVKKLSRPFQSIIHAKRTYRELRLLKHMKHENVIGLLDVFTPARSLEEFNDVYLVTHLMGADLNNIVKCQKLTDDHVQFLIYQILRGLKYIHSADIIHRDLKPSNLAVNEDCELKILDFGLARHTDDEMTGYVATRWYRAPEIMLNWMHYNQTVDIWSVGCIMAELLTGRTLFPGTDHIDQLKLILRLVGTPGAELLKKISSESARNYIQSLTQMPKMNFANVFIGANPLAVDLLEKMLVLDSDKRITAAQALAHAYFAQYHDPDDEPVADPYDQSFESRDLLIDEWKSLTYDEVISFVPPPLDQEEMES
Description: as §1

[9] = target: MNK1 (Homo sapiens (Human), UniProt Q9BUB5); assay: kinase panel residual activity test; conditions: compound at 10 μM
Description: as §1

[10] = target: p38s MAPK (Homo sapiens (Human), UniProt O15264); assay: kinase panel residual activity test; conditions: compound at 10 μM
Sequence of p38s MAPK (O15264 whole entry): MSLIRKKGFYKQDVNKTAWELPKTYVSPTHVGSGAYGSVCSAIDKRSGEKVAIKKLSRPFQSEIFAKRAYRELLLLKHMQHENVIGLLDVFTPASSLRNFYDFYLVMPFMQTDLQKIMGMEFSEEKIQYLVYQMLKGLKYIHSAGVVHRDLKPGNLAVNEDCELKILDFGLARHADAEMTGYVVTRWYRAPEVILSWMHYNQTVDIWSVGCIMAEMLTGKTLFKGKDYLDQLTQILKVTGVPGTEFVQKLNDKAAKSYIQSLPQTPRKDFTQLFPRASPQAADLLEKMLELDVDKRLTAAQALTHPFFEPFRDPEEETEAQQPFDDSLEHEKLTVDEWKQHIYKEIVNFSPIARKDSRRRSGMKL
Description: as §1

[11] = target: ERK2 (Homo sapiens (Human), UniProt P28482); assay: kinase panel residual activity test; conditions: compound at 10 μM
Description: as §1

[12] = target: JNK2 (Homo sapiens (Human), UniProt P45984); assay: kinase panel residual activity test; conditions: compound at 10 μM
Sequence of JNK2 (P45984 whole entry, species assumed): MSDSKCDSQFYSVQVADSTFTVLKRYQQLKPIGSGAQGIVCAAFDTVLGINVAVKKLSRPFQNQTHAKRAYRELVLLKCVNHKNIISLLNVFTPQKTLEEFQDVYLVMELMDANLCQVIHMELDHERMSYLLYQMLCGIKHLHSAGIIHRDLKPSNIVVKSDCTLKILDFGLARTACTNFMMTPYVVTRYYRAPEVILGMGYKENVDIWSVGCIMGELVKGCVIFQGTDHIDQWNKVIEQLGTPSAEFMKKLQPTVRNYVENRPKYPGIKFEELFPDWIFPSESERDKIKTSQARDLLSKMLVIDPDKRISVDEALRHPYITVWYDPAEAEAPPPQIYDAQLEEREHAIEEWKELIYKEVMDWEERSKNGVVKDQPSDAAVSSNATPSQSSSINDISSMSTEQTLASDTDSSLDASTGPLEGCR
Description: as §1

[13] = target: PAK4 (Homo sapiens (Human), UniProt O96013); assay: kinase panel residual activity test; conditions: compound at 10 μM
Description: as §1

[14] = system: CK1; assay: kinase panel residual activity test; conditions: compound at 10 μM
Description: as §1

[15] = target: p38b MAPK (Homo sapiens (Human), UniProt Q15759); assay: kinase panel residual activity test; conditions: compound at 10 μM
Sequence of p38b MAPK (Q15759 whole entry): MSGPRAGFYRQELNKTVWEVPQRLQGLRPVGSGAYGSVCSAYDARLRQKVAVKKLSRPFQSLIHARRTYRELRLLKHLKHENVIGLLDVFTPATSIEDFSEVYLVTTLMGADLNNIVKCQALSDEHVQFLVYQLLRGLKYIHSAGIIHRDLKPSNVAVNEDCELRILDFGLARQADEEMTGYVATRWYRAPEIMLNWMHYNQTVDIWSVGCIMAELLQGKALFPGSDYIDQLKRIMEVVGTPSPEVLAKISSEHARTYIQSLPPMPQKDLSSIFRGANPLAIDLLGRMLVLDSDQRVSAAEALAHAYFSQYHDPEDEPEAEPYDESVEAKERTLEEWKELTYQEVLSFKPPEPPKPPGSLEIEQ
Description: as §1

[16] = target: PLK1 (Homo sapiens (Human), UniProt P53350); assay: kinase panel residual activity test; conditions: compound at 10 μM
Description: as §1

[17] = target: RSK2 (Homo sapiens (Human), UniProt P51812); assay: kinase panel residual activity test; conditions: compound at 10 μM
Sequence of RSK2 (P51812 whole entry, species assumed): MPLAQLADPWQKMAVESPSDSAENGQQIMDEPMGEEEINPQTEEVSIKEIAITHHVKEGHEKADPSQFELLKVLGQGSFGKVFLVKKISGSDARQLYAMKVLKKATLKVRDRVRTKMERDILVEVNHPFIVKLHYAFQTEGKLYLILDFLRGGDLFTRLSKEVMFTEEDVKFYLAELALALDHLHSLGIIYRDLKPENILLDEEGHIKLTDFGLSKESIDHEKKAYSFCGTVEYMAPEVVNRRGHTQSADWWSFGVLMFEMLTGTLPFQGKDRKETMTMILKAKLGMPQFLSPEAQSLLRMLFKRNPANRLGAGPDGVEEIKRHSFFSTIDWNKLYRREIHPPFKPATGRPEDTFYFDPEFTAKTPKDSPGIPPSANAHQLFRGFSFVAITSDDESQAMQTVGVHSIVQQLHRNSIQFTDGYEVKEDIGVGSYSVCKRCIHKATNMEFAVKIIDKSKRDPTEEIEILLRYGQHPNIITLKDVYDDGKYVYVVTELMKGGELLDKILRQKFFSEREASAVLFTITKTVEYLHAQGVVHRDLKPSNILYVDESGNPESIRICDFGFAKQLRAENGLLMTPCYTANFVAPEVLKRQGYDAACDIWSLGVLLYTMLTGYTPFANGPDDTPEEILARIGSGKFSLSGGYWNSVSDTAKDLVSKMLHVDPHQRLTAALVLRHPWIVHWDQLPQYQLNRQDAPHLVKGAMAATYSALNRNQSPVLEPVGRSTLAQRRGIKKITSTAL
Description: as §1

[18] = target: PLK1 (Okadaic acid) (Homo sapiens (Human), UniProt P53350); assay: kinase panel residual activity test; conditions: compound at 10 μM
Description: as §1

[19] = target: PKBb (Homo sapiens (Human), UniProt P31751); assay: kinase panel residual activity test; conditions: compound at 10 μM
Description: as §1

[20] = target: JNK1 (Homo sapiens (Human), UniProt P45983); assay: kinase panel residual activity test; conditions: compound at 10 μM
Sequence of JNK1 (P45983 whole entry, species assumed): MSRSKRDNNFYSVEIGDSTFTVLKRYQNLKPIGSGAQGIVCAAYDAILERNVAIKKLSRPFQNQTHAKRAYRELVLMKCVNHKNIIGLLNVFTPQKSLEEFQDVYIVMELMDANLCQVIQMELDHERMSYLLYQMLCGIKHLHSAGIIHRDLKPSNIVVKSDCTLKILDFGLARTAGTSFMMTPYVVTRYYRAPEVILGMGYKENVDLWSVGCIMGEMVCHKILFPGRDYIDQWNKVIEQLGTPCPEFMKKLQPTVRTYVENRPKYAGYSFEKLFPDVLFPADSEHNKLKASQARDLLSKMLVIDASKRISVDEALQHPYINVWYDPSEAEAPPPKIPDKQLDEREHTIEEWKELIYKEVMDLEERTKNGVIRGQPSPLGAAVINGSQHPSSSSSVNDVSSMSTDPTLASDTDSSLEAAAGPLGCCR
Description: as §1

[21] = target: JNK3 (Homo sapiens (Human), UniProt P53779); assay: kinase panel residual activity test; conditions: compound at 10 μM
Sequence of JNK3 (P53779 whole entry, species assumed): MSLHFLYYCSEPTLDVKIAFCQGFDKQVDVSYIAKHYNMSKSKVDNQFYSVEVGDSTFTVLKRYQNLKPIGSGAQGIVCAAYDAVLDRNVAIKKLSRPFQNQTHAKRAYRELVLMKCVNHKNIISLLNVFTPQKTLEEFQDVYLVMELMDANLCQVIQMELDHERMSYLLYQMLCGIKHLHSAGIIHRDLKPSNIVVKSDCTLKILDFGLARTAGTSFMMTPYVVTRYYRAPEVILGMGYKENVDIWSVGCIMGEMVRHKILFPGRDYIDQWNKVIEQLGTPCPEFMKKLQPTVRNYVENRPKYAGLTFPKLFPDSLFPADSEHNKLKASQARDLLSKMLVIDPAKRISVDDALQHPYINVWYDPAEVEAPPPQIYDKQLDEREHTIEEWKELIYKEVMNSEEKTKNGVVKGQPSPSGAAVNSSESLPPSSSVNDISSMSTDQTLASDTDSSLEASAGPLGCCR
Description: as §1

[22] = target: CDK2/cyclin A (Homo sapiens (Human), UniProt P24941); assay: kinase panel residual activity test; conditions: compound at 10 μM
Description: as §1

[23] = target: CHK2 (Homo sapiens (Human), UniProt O96017); assay: kinase panel residual activity test; conditions: compound at 10 μM
Description: as §1

[24] = target: PAK6 (Homo sapiens (Human), UniProt Q9NQU5); assay: kinase panel residual activity test; conditions: compound at 10 μM
Description: as §1

[25] = target: p38g MAPK (Homo sapiens (Human), UniProt P53778); assay: kinase panel residual activity test; conditions: compound at 10 μM
Description: as §1

[26] = target: PRK2 (Homo sapiens (Human), UniProt Q16513); assay: kinase panel residual activity test; conditions: compound at 10 μM
Sequence of PRK2 (Q16513 whole entry, species assumed): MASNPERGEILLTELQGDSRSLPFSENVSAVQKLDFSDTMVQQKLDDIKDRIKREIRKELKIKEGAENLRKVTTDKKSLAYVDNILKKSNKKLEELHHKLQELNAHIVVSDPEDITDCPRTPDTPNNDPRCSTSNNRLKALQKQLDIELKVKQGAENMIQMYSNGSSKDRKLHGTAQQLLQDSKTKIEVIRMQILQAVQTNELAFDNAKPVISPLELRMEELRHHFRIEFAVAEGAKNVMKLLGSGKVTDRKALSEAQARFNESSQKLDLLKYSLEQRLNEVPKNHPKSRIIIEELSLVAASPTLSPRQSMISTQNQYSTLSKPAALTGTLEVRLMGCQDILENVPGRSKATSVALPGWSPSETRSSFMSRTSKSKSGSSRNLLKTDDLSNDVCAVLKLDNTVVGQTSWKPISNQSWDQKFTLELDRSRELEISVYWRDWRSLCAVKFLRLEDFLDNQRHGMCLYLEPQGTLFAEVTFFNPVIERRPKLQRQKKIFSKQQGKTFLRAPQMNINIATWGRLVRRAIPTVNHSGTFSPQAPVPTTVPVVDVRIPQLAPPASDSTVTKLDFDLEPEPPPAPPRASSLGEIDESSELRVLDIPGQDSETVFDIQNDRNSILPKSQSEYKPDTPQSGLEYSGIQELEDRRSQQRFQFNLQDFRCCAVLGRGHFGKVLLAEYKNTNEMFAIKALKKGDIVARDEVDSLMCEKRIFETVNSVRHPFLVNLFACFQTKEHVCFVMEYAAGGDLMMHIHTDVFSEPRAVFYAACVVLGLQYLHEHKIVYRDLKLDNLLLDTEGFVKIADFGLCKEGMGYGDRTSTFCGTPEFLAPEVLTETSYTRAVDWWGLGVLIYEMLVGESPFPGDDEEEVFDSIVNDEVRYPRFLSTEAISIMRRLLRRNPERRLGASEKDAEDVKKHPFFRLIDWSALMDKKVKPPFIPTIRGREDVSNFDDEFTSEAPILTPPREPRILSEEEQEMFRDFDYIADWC
Description: as §1

[27] = target: RSK1 (Homo sapiens (Human), UniProt Q15418); assay: kinase panel residual activity test; conditions: compound at 10 μM
Description: as §1

[28] = target: PIM-2 (Homo sapiens (Human), UniProt Q9P1W9); assay: inhibition test on kinase PIM-2 (residual activity, IC50)
Description: as §1, §2, §3, §4, §5, §6, §7

[29] = target: PIM-3 (Homo sapiens (Human), UniProt Q86V86); assay: inhibition test on kinase PIM-3 (residual activity, IC50)
Description: as §1, §2, §3, §4, §5, §6, §7

[30] = compound at 10 μM, Table 1 panel, read-out: % residual activity PIM-1
[31] = product at 10 μmol/L, Table 2, N.I. = not inhibitory, read-out: Percentage of residual activity PIM-1
[32] = ten concentrations, dose-inhibition curve
[33] = compound at 10 μM, Table 1 panel, read-out: % residual activity PIM-2
[34] = product at 10 μmol/L, Table 2, N.I. = not inhibitory, read-out: Percentage of residual activity PIM-2
[35] = compound at 10 μM, Table 1 panel, read-out: % residual activity PIM-3
[36] = product at 10 μmol/L, Table 2, N.I. = not inhibitory, read-out: Percentage of residual activity PIM-3

Row | SMILES | remaining activity at 10 µM [1, 30] | remaining activity at 10 µM [5] | remaining activity at 10 µM [7] | remaining activity at 10 µM [8] | remaining activity at 10 µM [9] | remaining activity at 10 µM [10] | remaining activity at 10 µM [12] | remaining activity at 10 µM [13] | remaining activity at 10 µM [15] | remaining activity at 10 µM [16] | remaining activity at 10 µM [17] | remaining activity at 10 µM [18] | remaining activity at 10 µM [19] | remaining activity at 10 µM [20] | remaining activity at 10 µM [21] | remaining activity at 10 µM [22] | remaining activity at 10 µM [23] | remaining activity at 10 µM [24] | remaining activity at 10 µM [25] | remaining activity at 10 µM [26] | other results
1 | NC(=O)c1c[nH]c2c1ccc1c3ccccc3[nH]c12 [Example 5, 1,10-dihydropyrrolo[2,3-a]carbazole-3-carboxamide] | 9% | 80% | 97% | 96% | 19% | 76% | 115% | 16% | 92% | 100% | 97% | 79% | 103% | 106% | 104% | 53% | 44% | 83% | 96% | 54% | remaining activity at 10 µM [1, 31]: 9%; IC50 [1, 32]: 780 nM; remaining activity at 10 µM [2]: 48%; % residual activity CK2 [3]: 77%; remaining activity at 10 µM [4]: 78%; remaining activity at 10 µM [6]: 80%; remaining activity at 10 µM [11]: 93%; % residual activity CK1 [14]: 96%; remaining activity at 10 µM [27]: 79%; remaining activity at 10 µM [28, 33]: 27%; remaining activity at 10 µM [28, 34]: 27%; remaining activity at 10 µM [29, 35]: 9%; remaining activity at 10 µM [29, 36]: 9%; IC50 [29, 32]: 210 nM
2 | O=Cc1c[nH]c2c1ccc1c3ccccc3[nH]c12 [Example 3, 1,10-dihydropyrrolo[2,3-a]carbazole-3-carbaldehyde] |  | 71% | 96% | 102% | 27% | 92% | 128% | 88% | 80% | 91% | 124% | 83% | 98% | 102% | 113% | 74% | 38% | 94% | 74% | 31% | 
3 | c1ccc2c(c1)[nH]c1c2ccc2cc[nH]c21 [Example 2, 1,10-dihydropyrrolo[2,3-a]carbazole] | 20% | 29% | 120% | 108% | 69% | 78% | 118% | 84% | 100% | 111% | 129% | 103% | 107% | 102% | 108% | 97% | 58% | 92% | 111% | 95% | remaining activity at 10 µM [1, 31]: 20%; remaining activity at 10 µM [2]: 86%; % residual activity CK2 [3]: 91%; remaining activity at 10 µM [4]: 88%; remaining activity at 10 µM [6]: 87%; remaining activity at 10 µM [11]: 94%; % residual activity CK1 [14]: 107%; remaining activity at 10 µM [27]: 105%; remaining activity at 10 µM [28, 33]: 62%; remaining activity at 10 µM [28, 34]: 62%; remaining activity at 10 µM [29, 35]: 10%; remaining activity at 10 µM [29, 36]: 10%
